From US20160303069A1, “MEDICAL USE OF COMPOUND FROM GARCINIA ESCULENTA” (Hong Kong Baptist University, priority 2015, published 2016)

Experiments:
Eca109 cells [1] = assay: matrigel transwell cell invasion assay; format: cell-based, human; conditions: 5, 10, 15, 20 μM, 24 hours
Method: (§1) Eca109 and KYSE150 are cultured in RPMI1640 medium supplemented with 10% fetal calf serum, 100 U/ml penicillin and 100 μg/ml streptomycin in a humidified atmosphere containing 5% CO2 at 37° C. 0.25% trypsin is used for digestion and passage; cells under logarithmic growth phase are used in the experiment.
Transwell chambers (8 μm pore size) used in cell migration assay are pre-incubated with matrigel for 2 hours, Eca109 (1×10^5 cells/well) are seeded onto serum-free upper chambers, lower chamber contains 10% FBS medium. Cells are treatment with GPX for 24 hours, thereafter, medium is discarded, cotton swab is used to gently remove the non invaded cells in the upper chamber. Invaded cells in the lower chamber are fixed with 4% paraformaldehyde, stained with 0.1% crystal violet and scored under a light microscope. Experimental data are expressed as mean±standard deviation, using SPSS18.0 statistical software for analysis, One-Way ANOVA for variance, comparison using Student t test, *P<0.05, **P<0.01, ***P<0.001 is considered as statistically significant difference.

KYSE150 lung metastasis = assay: lung metastasis animal model (KYSE150 cells injected intravenously); format: in vivo; conditions: nude mice, 20 mg/kg every another day for 35 days; for number of lung tumor nodules / size / area of lung nodules (metastatic foci): HE staining, 20 mg/kg
Method: as §1, with “incubator” for “atmosphere”
KYSE150 cells (1×10^6 cells/mouse) are intravenously injected into 6-week old male nude mice (Experimental Animal Center of the Chinese Academy of Science, Shanghai, China). The 6-week old male nude mice weight 20 g each. After injection of the cancer cells, the mice are divided into 3 groups randomly (n=8 in each group). DMSO, GPX (20 mg/kg) or 5-FU (20 mg/kg) are administered to the mice intraperitoneally every another day for 35 days. Body weight is measured every 2 days. 35 days later, lungs are removed and weighted. Using Bouin's solution, lungs are fixed, sliced and stained with HE to count number of lung nodules.

Eca109 cells [2] = assay: cell cycle analysis by PI flow cytometry; format: cell-based, human; conditions: 48 hours
Method: as §1, with “passage,” for “passage;”
Eca109 and KYSE150 (2×10^5 cells/well) are seeded to a 6-well place and treated with GPX or SFB (20 μM/well) for 48 hours. Cells are then harvested and fixed in 70% cold ethanol and stored 4° C. overnight. The cells are incubated with PI containing RNase A for 30 mins at 37° C., and are analyzed by flow cytometry (BD Biosciences Inc., Franklin Lakes, N.J., USA).

KYSE150 cells [3] = assay: cell cycle analysis by PI flow cytometry; format: cell-based, human; conditions: 48 hours
Method: as §1, with “passage,” for “passage;”
[…] Cells are then harvested and fixed in 70% cold ethanol and stored 4° C. overnight. The cells are incubated with PI containing RNase A for 30 mins at 37° C., and are analyzed by flow cytometry (BD Biosciences Inc., Franklin Lakes, N.J., USA).

KYSE150 cells [4] = assay: scratch (wound healing) migration assay; format: cell-based, human
Method: as §1
(§2) Eca109 and KYSE150 under logarithmic growth phase are seeded into 24-well plate (1×10^5 cells/well). When monolayer of cell is formed, use a sterile 100 μl pipette tip to create a scratch on the monolayer, and fresh medium containing different concentration of Griffipavixanthone (GPX) or Sorafenib (SFB) (20 μM/well) are added. Cells are observed at 12 hours and 36 hours after scratch and imaged under IX83 microscope (Olympus, Tokyo, Japan).

Eca109 cells [5] = assay: scratch (wound healing) migration assay; format: cell-based, human
Method: as §1, §2

KYSE150 cells [6] = assay: matrigel transwell cell invasion assay; format: cell-based, human; conditions: 5, 10, 15, 20 μM, 24 hours
esophageal cancer = assay: apoptosis in vitro; format: cell-based
KYSE150 cells [7] = assay: colony formation / cell proliferation assay; format: cell-based, human; conditions: 5, 10, 15, 20 μM, 48 hours treatment, 7 days incubation
Method: as §1
(§3) Eca109 (500 cells/well) and KYSE150 (250 cells/well) are seeded in a 6-well plate. […] On the 7th day, cells are fixed with 4% paraformaldehyde, stained with 0.1% crystal violet and imaged under a light microscope.

Eca109 cells [8] = assay: colony formation / cell proliferation assay; format: cell-based, human; conditions: 5, 10, 15, 20 μM, 48 hours treatment, 7 days incubation
Method: as §1, §3

KYSE150 cells [9] = assay: transwell cell migration assay; format: cell-based, human; conditions: 5, 10, 15, 20 μM, 24 hours
Method: as §1
(§4) Eca109 and KYSE150 (5×10^4 cells/well) are seeded to the upper chamber (8 μm pore size) of the transwell chambers. The upper chamber contains serum-free; the lower chamber contains 10% FBS. Cells are treated with GPX for 24 hours, medium is then removed, non-migrated cells found on the upper chamber are removed using a cotton swab. Migrated cells found on the bottom chamber are fixed with 4% paraformaldehyde, stained with 0.1% crystal violet and scored under a light microscope in five random fields as shown in FIG. 3. Experimental data are expressed as mean±standard deviation, using SPSS18.0 statistical software for analysis, One-Way ANOVA for variance, comparison using Student t test, **P<0.01, ***P<0.001 is considered as statistically significant difference.

Eca109 cells [10] = assay: transwell cell migration assay; format: cell-based, human; conditions: 5, 10, 15, 20 μM, 24 hours
Method: as §1, §4

[11] = different concentrations of GPX, observed 12 h and 36 h after scratch
[12] = SFB 20 μM/well, positive control

For `CC1=C[C@H]2c3c(c(O)c(O)c4oc5cc(O)cc(O)c5c(=O)c34)[C@H](c3cc(O)c(O)c4oc5cc(O)cc(O)c5c(=O)c34)[C@H]2C(C)(C)C1` [GPX, Griffipavixanthone], the “inhibition of cell invasion” value (Eca109 cells [1]) was “inhibits cell invasion of Eca109 and KYSE150 at 5, 10, 15, 20 μM in a dose dependent manner”, the “inhibition of lung metastasis of KYSE150” value (KYSE150 lung metastasis) was “significantly inhibits lung metastasis of KYSE150” and the lung weight (KYSE150 lung metastasis) was “reduced lung weight”. The “number of lung tumor nodules” value (KYSE150 lung metastasis) was “reduced number of lung tumor nodules”, the “size / area of lung nodules (metastatic foci)” value (KYSE150 lung metastasis) was “metastatic foci are sparse and smaller” and the “number of lung tumor nodules” value (KYSE150 lung metastasis; listed as Griffipavixanthone) was “reduces lung nodules”. For the same molecule, the “size / area of lung nodules (metastatic foci)” value (KYSE150 lung metastasis; listed as Griffipavixanthone) was “reduces lung nodules and area of pulmonary nodules in lung tissues”, the “G2/M cell cycle arrest” value (Eca109 cells [2]; 5, 10, 15, 20 μM) was “induces G2/M cell cycle arrest in Eca109 and KYSE150 at 5, 10, 15, 20 μM in a dose dependent manner” and the “G2/M cell cycle arrest” value (KYSE150 cells [3]; 5, 10, 15, 20 μM) was “induces G2/M cell cycle arrest in Eca109 and KYSE150 at 5, 10, 15, 20 μM in a dose dependent manner”. The “inhibition of cell scratch migration in wound healing” value (shortened to “inhibition of cell scratch migration”) (KYSE150 cells [4]; [11]) was “inhibits cell migration of Eca109 and KYSE150 in wound healing in a dose dependent manner”, the “inhibition of cell scratch migration” value (Eca109 cells [5]; [11]) was “inhibits cell migration of Eca109 and KYSE150 in wound healing in a dose dependent manner” and the “inhibition of cell invasion” value (KYSE150 cells [6]) was “inhibits cell invasion of Eca109 and KYSE150 at 5, 10, 15, 20 μM in a dose dependent manner”. The promotion of apoptosis (esophageal cancer) was “without promoting apoptosis in vitro”, the “inhibition of cell proliferation (colony formation)” value (KYSE150 cells [7]) was “inhibits cell proliferation of Eca109 and KYSE150 at 5, 10, 15, 20 μM in a dose dependent manner” and the “inhibition of cell proliferation (colony formation)” value (Eca109 cells [8]) was “inhibits cell proliferation of Eca109 and KYSE150 at 5, 10, 15, 20 μM in a dose dependent manner”. The “inhibition of cell migration (transwell)” value (KYSE150 cells [9]) was “inhibits cell migration of Eca109 and KYSE150 at 5, 10, 15, 20 μM in a dose dependent manner” and the “inhibition of cell migration (transwell)” value (Eca109 cells [10]) was “inhibits cell migration of Eca109 and KYSE150 at 5, 10, 15, 20 μM in a dose dependent manner”.
In the case of `CNC(=O)c1cc(Oc2ccc(NC(=O)Nc3ccc(Cl)c(C(F)(F)F)c3)cc2)ccn1` [SFB, Sorafenib, reference compound], the “G2/M cell cycle arrest” value (Eca109 cells [2]; [12]) was “the results are in line with SFB”, the “G2/M cell cycle arrest” value (KYSE150 cells [3]; [12]) was “the results are in line with SFB” and the “inhibition of cell scratch migration” value (KYSE150 cells [4]; [12]) was “significantly inhibit cell scratch migration”. The “inhibition of cell scratch migration” value (Eca109 cells [5]; [12]) was “significantly inhibit cell scratch migration”.
